Experimental data reported in PubChem BioAssay AID1963852 (Molecular Pharmacology Branch, DTP, NCI, 2024).

System: 282377-053-R-J1-PDC complex spheroid viability
Assay: Anticancer human tumor 282377-053-R-J1-PDC patient-derived colon adenocarcinoma cell line growth inhibition [POLQ]
Conditions: for IC50: curve of first compound; for viability, T/C: stronger effect = lower value
Summary of the method: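 Growth inhibition in 3D: complex spheroids (tumor PDC, HUVEC, MSC) treated with POLQ inhibitor combinations; where Cmax unknown, highest tested concentration 10 microM, except SN-38 at 1 microM.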
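Also: spheroids exposed to compounds for seven days.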
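For viability, T/C in this document: 100% = DMSO vehicle control viability.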

For `CC(=O)O[C@H]1C(=O)[C@@]2(C)[C@H]([C@H](OC(=O)c3ccccc3)[C@]3(O)C[C@H](OC(=O)[C@H](O)[C@@H](NC(=O)c4ccccc4)c4ccccc4)C(C)=C1C3(C)C)[C@]1(OC(C)=O)CO[C@@H]1C[C@@H]2O` + Cc1cccc(N(C)C(=O)C2C(O)CCN2c2nc(C)cc(C(F)(F)F)c2C#N)c1, which IC50 (second compound 0.0316 µM) is on record?
Its IC50 is 27.8 nM.

What about the IC50 (second compound 0.1 µM) of the same molecule?
Its IC50 is 28 nM.

And the IC50 (second compound 0.316 µM)?
The IC50 was 26 nM.

What about the IC50 (second compound 1 µM) of the same molecule?
Its IC50 is 27.6 nM.

And the IC50 (second compound 3.16 µM)?
The IC50 was 28.1 nM.

What about the IC50 (second compound 10 µM) of the same molecule?
The IC50 was 26.9 nM.

And the viability, T/C (second compound 0.0316 µM, first compound 0.00949 µM)?
The viability, T/C was 103%.

What about the viability, T/C (second compound 0.0316 µM, first compound 0.03 µM) of the same molecule?
The viability, T/C was 44.3%.

And the viability, T/C (second compound 0.0316 µM, first compound 0.0949 µM)?
The viability, T/C was 40.6%.

And the viability, T/C (second compound 0.0316 µM, first compound 0.3 µM)?
Its viability, T/C is 43%.

What about the viability, T/C (second compound 0.0316 µM, first compound 0.949 µM) of the same molecule?
The viability, T/C was 45.6%.

And the viability, T/C (second compound 0.0316 µM, first compound 3 µM)?
Its viability, T/C is 57.6%.

And the viability, T/C (second compound 0.1 µM, first compound 0.00949 µM)?
The viability, T/C was 90.3%.

And the viability, T/C (second compound 0.1 µM, first compound 0.03 µM)?
Its viability, T/C is 47.5%.

What about the viability, T/C (second compound 0.1 µM, first compound 0.0949 µM) of the same molecule?
The viability, T/C was 43.4%.

What about the viability, T/C (second compound 0.1 µM, first compound 0.3 µM) of the same molecule?
Its viability, T/C is 40.9%.

And the viability, T/C (second compound 0.1 µM, first compound 0.949 µM)?
The viability, T/C was 44.8%.

What about the viability, T/C (second compound 0.1 µM, first compound 3 µM) of the same molecule?
The viability, T/C was 53%.

What about the viability, T/C (second compound 0.316 µM, first compound 0.00949 µM) of the same molecule?
Its viability, T/C is 98.8%.

What about the viability, T/C (second compound 0.316 µM, first compound 0.03 µM) of the same molecule?
Its viability, T/C is 42.5%.

What about the viability, T/C (second compound 0.316 µM, first compound 0.0949 µM) of the same molecule?
Its viability, T/C is 38.5%.

And the viability, T/C (second compound 0.316 µM, first compound 0.3 µM)?
The viability, T/C was 37.5%.

And the viability, T/C (second compound 0.316 µM, first compound 0.949 µM)?
Its viability, T/C is 45.4%.

And the viability, T/C (second compound 0.316 µM, first compound 3 µM)?
Its viability, T/C is 51.4%.

What about the viability, T/C (second compound 1 µM, first compound 0.00949 µM) of the same molecule?
Its viability, T/C is 92.3%.

And the viability, T/C (second compound 1 µM, first compound 0.03 µM)?
Its viability, T/C is 44.9%.

What about the viability, T/C (second compound 1 µM, first compound 0.0949 µM) of the same molecule?
The viability, T/C was 37.2%.

And the viability, T/C (second compound 1 µM, first compound 0.3 µM)?
Its viability, T/C is 45.6%.

And the viability, T/C (second compound 1 µM, first compound 0.949 µM)?
The viability, T/C was 48.8%.

What about the viability, T/C (second compound 1 µM, first compound 3 µM) of the same molecule?
The viability, T/C was 56.7%.

And the viability, T/C (second compound 3.16 µM, first compound 0.00949 µM)?
The viability, T/C was 99.5%.

What about the viability, T/C (second compound 3.16 µM, first compound 0.03 µM) of the same molecule?
Its viability, T/C is 47.2%.

And the viability, T/C (second compound 3.16 µM, first compound 0.0949 µM)?
Its viability, T/C is 39.5%.

And the viability, T/C (second compound 3.16 µM, first compound 0.3 µM)?
The viability, T/C was 44.5%.

And the viability, T/C (second compound 3.16 µM, first compound 0.949 µM)?
Its viability, T/C is 45.2%.

And the viability, T/C (second compound 3.16 µM, first compound 3 µM)?
Its viability, T/C is 54.2%.

What about the viability, T/C (second compound 10 µM, first compound 0.00949 µM) of the same molecule?
Its viability, T/C is 95%.

What about the viability, T/C (second compound 10 µM, first compound 0.03 µM) of the same molecule?
Its viability, T/C is 43.1%.

And the viability, T/C (second compound 10 µM, first compound 0.0949 µM)?
Its viability, T/C is 37.8%.

What about the viability, T/C (second compound 10 µM, first compound 0.3 µM) of the same molecule?
The viability, T/C was 40.7%.

And the viability, T/C (second compound 10 µM, first compound 0.949 µM)?
The viability, T/C was 46.4%.

And the viability, T/C (second compound 10 µM, first compound 3 µM)?
Its viability, T/C is 58.1%.

Which IC50 (second compound 0.0316 µM) does the source give for `COc1cc2cc(C(=O)CCC(=O)O)sc2cc1OC` + COC1C(OC(N)=O)C(O)C(Oc2ccc3c(O)c(NC(=O)c4ccc(O)c(CC=C(C)C)c4)c(=O)oc3c2C)OC1(C)C here?
The IC50 was > 10000 nM.

What about the IC50 (second compound 0.1 µM) of the same molecule?
Its IC50 is > 10000 nM.

What about the IC50 (second compound 0.316 µM) of the same molecule?
Its IC50 is > 10000 nM.

And the IC50 (second compound 1 µM)?
The IC50 was > 10000 nM.

And the IC50 (second compound 3.16 µM)?
Its IC50 is > 10000 nM.

And the IC50 (second compound 10 µM)?
The IC50 was > 10000 nM.

And the viability, T/C (second compound 0.0316 µM, first compound 0.0316 µM)?
The viability, T/C was 118%.

What about the viability, T/C (second compound 0.0316 µM, first compound 0.1 µM) of the same molecule?
Its viability, T/C is 103%.

And the viability, T/C (second compound 0.0316 µM, first compound 0.316 µM)?
The viability, T/C was 128%.

And the viability, T/C (second compound 0.0316 µM, first compound 1 µM)?
The viability, T/C was 104%.

And the viability, T/C (second compound 0.0316 µM, first compound 3.16 µM)?
Its viability, T/C is 113%.

And the viability, T/C (second compound 0.0316 µM, first compound 10 µM)?
Its viability, T/C is 99.3%.

And the viability, T/C (second compound 0.1 µM, first compound 0.0316 µM)?
The viability, T/C was 105%.

And the viability, T/C (second compound 0.1 µM, first compound 0.1 µM)?
The viability, T/C was 105%.

And the viability, T/C (second compound 0.1 µM, first compound 0.316 µM)?
The viability, T/C was 116%.

And the viability, T/C (second compound 0.1 µM, first compound 1 µM)?
Its viability, T/C is 107%.

What about the viability, T/C (second compound 0.1 µM, first compound 3.16 µM) of the same molecule?
Its viability, T/C is 99.1%.

And the viability, T/C (second compound 0.1 µM, first compound 10 µM)?
The viability, T/C was 88.3%.

What about the viability, T/C (second compound 0.316 µM, first compound 0.0316 µM) of the same molecule?
Its viability, T/C is 121%.

What about the viability, T/C (second compound 0.316 µM, first compound 0.1 µM) of the same molecule?
Its viability, T/C is 102%.

And the viability, T/C (second compound 0.316 µM, first compound 0.316 µM)?
Its viability, T/C is 83.1%.

And the viability, T/C (second compound 0.316 µM, first compound 1 µM)?
Its viability, T/C is 105%.

And the viability, T/C (second compound 0.316 µM, first compound 3.16 µM)?
Its viability, T/C is 86.9%.

What about the viability, T/C (second compound 0.316 µM, first compound 10 µM) of the same molecule?
Its viability, T/C is 93.2%.

What about the viability, T/C (second compound 1 µM, first compound 0.0316 µM) of the same molecule?
The viability, T/C was 109%.

And the viability, T/C (second compound 1 µM, first compound 0.1 µM)?
Its viability, T/C is 97.1%.

And the viability, T/C (second compound 1 µM, first compound 0.316 µM)?
The viability, T/C was 109%.

And the viability, T/C (second compound 1 µM, first compound 1 µM)?
Its viability, T/C is 97.1%.

And the viability, T/C (second compound 1 µM, first compound 3.16 µM)?
Its viability, T/C is 114%.

What about the viability, T/C (second compound 1 µM, first compound 10 µM) of the same molecule?
Its viability, T/C is 86.6%.

What about the viability, T/C (second compound 3.16 µM, first compound 0.0316 µM) of the same molecule?
Its viability, T/C is 111%.

And the viability, T/C (second compound 3.16 µM, first compound 0.1 µM)?
The viability, T/C was 87.3%.

And the viability, T/C (second compound 3.16 µM, first compound 0.316 µM)?
Its viability, T/C is 119%.

And the viability, T/C (second compound 3.16 µM, first compound 1 µM)?
The viability, T/C was 99.5%.

What about the viability, T/C (second compound 3.16 µM, first compound 3.16 µM) of the same molecule?
The viability, T/C was 86.7%.

And the viability, T/C (second compound 3.16 µM, first compound 10 µM)?
The viability, T/C was 115%.

What about the viability, T/C (second compound 10 µM, first compound 0.0316 µM) of the same molecule?
The viability, T/C was 99%.

And the viability, T/C (second compound 10 µM, first compound 0.1 µM)?
Its viability, T/C is 93.7%.

What about the viability, T/C (second compound 10 µM, first compound 0.316 µM) of the same molecule?
Its viability, T/C is 117%.

And the viability, T/C (second compound 10 µM, first compound 1 µM)?
Its viability, T/C is 115%.

What about the viability, T/C (second compound 10 µM, first compound 3.16 µM) of the same molecule?
The viability, T/C was 105%.

What about the viability, T/C (second compound 10 µM, first compound 10 µM) of the same molecule?
Its viability, T/C is 123%.
